Reference: ChEMBL document CHEMBL2434948, “Discovery, synthesis, and characterization of an orally bioavailable, brain penetrant inhibitor of mixed lineage kinase 3” (J Med Chem, 2013)
Blank lines part the entries; values can stand above or below the compound they belong to. The source made the active and inactive calls. No cut-off for these calls is given here.

Legend:
[1] = molecular target: T1, Mitogen-activated protein kinase kinase kinase 11 (Homo sapiens, UniProt Q16584)
Cytochrome P450 3A4 = Cytochrome P450 3A4 (Homo sapiens, UniProt P08684)
Cytochrome P450 3A4, sequence (P08684 whole entry): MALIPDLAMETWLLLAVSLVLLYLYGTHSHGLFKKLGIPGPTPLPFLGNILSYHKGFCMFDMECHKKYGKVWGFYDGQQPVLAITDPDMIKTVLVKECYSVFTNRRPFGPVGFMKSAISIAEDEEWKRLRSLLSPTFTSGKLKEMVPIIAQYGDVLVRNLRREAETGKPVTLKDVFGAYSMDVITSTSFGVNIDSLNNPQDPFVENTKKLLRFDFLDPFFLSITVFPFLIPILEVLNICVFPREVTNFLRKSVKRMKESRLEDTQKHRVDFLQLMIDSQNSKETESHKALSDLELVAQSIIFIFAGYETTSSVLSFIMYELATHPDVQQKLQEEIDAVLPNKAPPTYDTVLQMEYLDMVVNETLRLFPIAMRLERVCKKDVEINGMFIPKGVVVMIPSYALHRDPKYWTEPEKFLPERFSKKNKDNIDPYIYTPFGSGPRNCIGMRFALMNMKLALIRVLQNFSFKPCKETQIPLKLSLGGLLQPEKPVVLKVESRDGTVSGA

Cytochrome P450 2D6 = Cytochrome P450 2D6 (Homo sapiens, UniProt P10635)
Cytochrome P450 2D6, sequence (P10635 whole entry): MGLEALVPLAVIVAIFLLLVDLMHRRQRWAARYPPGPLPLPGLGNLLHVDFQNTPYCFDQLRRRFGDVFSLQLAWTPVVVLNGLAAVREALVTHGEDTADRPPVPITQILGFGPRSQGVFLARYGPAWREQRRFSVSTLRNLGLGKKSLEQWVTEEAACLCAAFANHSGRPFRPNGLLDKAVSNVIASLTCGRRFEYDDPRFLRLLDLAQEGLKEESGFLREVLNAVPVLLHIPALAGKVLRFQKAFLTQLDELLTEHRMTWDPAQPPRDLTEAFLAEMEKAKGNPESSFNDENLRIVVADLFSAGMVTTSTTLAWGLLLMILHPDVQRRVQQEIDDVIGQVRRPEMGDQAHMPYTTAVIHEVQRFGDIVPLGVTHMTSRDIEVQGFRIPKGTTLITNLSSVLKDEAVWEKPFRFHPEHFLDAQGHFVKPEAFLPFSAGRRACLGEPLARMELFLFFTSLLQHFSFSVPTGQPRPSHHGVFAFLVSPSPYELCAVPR

Cytochrome P450 2C9 = Cytochrome P450 2C9 (Homo sapiens, UniProt P11712)
Cytochrome P450 2C9, sequence (P11712 whole entry): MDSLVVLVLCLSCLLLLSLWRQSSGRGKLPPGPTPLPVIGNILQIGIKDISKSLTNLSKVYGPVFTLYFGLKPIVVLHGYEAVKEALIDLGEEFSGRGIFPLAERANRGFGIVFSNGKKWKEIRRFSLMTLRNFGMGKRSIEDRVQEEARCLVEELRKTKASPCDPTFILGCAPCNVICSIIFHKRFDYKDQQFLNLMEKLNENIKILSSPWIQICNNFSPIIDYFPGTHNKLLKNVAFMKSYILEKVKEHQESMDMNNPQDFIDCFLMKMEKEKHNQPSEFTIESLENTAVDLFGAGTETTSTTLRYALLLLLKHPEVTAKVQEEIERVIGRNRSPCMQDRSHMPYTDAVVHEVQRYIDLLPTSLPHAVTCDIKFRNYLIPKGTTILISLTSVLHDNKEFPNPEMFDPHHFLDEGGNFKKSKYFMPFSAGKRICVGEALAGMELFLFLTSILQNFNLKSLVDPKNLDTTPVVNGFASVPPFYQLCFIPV

[2] = molecular target: Mitogen-activated protein kinase kinase kinase 11 (Mus musculus, UniProt Q80XI6)
Mitogen-activated protein kinase kinase kinase 11 (Mus musculus, UniProt Q80XI6), sequence (Q80XI6 whole entry): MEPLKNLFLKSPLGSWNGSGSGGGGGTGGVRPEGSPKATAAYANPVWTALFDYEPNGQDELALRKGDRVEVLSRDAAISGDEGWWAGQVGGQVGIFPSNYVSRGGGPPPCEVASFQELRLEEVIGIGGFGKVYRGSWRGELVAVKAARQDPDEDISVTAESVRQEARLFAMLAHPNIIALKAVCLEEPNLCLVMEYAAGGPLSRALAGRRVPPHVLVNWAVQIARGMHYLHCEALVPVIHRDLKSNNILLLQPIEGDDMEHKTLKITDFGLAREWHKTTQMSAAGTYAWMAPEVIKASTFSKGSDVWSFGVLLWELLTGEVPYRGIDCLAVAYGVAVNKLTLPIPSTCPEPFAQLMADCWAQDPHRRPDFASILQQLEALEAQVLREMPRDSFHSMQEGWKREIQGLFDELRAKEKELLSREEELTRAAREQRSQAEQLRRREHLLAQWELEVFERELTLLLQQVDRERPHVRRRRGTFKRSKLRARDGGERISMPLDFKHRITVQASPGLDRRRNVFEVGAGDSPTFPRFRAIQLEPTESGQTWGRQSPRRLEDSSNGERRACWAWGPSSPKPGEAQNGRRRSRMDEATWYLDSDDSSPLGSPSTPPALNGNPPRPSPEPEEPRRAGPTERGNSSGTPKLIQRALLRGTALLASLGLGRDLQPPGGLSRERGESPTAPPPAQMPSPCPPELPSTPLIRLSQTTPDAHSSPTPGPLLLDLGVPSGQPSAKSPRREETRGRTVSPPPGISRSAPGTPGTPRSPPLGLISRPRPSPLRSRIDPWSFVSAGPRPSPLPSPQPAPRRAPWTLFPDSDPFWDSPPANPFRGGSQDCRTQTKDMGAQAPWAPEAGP

[3] = molecular target: Receptor-type tyrosine-protein kinase FLT3 (Homo sapiens) (UniProt P36888); experiment: Inhibition of wild type human FLT3 at 1 umol by high throughput ATP-[33P] radiolabeled assay relative to control
[4] = molecular target: T2, Leucine-rich repeat serine/threonine-protein kinase 2 (Homo sapiens, UniProt Q5S007)
[5] = molecular target: T3, Receptor-type tyrosine-protein kinase FLT3 (Homo sapiens, UniProt P36888)
T3 sequence (P36888 whole entry): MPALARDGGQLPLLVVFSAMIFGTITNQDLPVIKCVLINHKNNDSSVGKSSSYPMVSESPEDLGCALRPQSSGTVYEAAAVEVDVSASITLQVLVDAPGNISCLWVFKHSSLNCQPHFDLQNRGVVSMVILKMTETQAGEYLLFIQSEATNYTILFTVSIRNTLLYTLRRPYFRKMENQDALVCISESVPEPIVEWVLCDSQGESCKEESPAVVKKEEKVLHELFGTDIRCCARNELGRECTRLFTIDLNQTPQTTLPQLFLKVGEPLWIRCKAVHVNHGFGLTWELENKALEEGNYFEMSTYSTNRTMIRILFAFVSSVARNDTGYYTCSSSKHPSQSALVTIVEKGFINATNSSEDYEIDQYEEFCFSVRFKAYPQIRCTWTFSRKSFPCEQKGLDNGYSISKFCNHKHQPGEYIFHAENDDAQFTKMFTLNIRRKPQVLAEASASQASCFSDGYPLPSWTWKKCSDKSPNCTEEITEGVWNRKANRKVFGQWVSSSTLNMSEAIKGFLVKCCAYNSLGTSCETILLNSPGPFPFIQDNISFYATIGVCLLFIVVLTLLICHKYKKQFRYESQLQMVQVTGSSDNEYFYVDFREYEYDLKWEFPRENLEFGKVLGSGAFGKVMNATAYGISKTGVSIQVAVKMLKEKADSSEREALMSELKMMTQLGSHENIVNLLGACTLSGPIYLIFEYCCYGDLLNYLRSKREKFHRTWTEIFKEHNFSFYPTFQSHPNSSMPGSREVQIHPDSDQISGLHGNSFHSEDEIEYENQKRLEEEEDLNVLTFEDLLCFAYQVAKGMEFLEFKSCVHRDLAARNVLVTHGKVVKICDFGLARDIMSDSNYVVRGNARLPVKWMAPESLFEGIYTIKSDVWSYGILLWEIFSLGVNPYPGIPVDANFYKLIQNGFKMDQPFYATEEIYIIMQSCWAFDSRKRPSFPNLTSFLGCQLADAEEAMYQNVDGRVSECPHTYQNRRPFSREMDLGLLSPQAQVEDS

Insulin receptor = Insulin receptor (Homo sapiens, UniProt P06213)
Insulin receptor, sequence (P06213 28-758 limits assumed): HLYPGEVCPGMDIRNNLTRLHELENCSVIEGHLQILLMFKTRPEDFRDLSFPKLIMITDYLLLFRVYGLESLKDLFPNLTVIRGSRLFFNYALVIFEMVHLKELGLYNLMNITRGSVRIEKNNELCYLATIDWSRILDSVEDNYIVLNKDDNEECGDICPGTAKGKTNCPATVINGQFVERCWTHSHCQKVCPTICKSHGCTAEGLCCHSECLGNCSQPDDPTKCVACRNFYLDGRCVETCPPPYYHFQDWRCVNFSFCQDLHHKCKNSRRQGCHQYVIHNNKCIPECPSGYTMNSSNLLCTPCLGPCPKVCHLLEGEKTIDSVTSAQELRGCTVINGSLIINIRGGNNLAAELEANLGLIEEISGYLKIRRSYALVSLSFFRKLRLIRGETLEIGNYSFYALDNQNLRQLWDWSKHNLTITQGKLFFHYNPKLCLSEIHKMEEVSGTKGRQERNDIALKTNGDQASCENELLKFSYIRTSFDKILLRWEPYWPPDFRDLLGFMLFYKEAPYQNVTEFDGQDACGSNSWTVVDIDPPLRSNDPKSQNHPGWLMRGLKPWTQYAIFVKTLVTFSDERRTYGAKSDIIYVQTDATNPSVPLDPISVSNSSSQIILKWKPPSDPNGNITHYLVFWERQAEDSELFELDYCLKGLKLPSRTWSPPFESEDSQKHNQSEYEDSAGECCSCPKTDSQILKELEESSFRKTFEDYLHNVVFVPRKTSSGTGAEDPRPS
Insulin receptor, sequence (P06213 763-1382 limits assumed): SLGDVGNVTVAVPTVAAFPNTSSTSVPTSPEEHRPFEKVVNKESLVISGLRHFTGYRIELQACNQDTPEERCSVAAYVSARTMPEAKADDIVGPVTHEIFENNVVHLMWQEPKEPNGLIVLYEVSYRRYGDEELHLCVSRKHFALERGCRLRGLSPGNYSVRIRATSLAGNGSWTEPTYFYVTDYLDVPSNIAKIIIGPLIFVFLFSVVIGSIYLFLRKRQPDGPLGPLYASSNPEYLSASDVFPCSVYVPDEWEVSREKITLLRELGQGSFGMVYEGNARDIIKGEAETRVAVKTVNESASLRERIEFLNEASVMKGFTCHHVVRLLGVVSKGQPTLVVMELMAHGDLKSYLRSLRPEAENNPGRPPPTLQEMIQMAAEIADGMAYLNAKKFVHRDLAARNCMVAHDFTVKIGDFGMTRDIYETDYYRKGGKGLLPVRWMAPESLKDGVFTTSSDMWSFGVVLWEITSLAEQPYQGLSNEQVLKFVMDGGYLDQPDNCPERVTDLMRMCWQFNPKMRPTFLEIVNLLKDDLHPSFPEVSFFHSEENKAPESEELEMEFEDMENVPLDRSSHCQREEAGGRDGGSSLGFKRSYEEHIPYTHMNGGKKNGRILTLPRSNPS

[6] = molecular target: Inhibitor of nuclear factor kappa-B kinase subunit beta (Homo sapiens, UniProt O14920)
[7] = molecular target: Cyclin-dependent kinase 2 (Homo sapiens, UniProt P24941)
[8] = molecular target: Tyrosine-protein kinase ABL1 (Homo sapiens, UniProt P00519, T315I)
[9] = molecular target: T3, Receptor-type tyrosine-protein kinase FLT3; experiment: cell-based
[10] = molecular target: Inhibitor of nuclear factor kappa-B kinase subunit alpha (Homo sapiens, UniProt O15111)
[11] = molecular target: Mitogen-activated protein kinase kinase kinase kinase 4 (Homo sapiens) (UniProt O95819); experiment: Binding affinity to human wild type MAP4K4 at 1 uM by qPCR analysis
[12] = molecular target: Receptor-type tyrosine-protein kinase FLT3 (Homo sapiens) (UniProt P36888); experiment: Inhibition of human wild type FLT3 at 1 uM by qPCR analysis relative to control
[13] = molecular target: T4, Tyrosine-protein kinase ABL1 (Homo sapiens, UniProt P00519); experiment: Inhibition of human wild type ABL1 at 1 uM by qPCR analysis relative to control
[14] = molecular target: Aurora kinase C (Homo sapiens) (UniProt Q9UQB9); experiment: Inhibition of human wild type Aurora kinase C at 1 uM by qPCR analysis relative to control
Aurora kinase C (Homo sapiens), sequence (Q9UQB9 whole entry): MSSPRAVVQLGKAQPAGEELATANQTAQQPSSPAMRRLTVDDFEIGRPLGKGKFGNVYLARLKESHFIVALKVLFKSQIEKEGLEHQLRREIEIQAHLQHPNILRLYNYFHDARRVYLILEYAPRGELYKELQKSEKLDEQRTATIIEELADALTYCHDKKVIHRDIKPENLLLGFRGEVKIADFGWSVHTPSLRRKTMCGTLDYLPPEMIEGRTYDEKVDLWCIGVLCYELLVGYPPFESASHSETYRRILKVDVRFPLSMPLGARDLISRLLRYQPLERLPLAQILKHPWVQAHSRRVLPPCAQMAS

[15] = molecular target: Serine/threonine-protein kinase BRSK2 (Homo sapiens) (UniProt Q8IWQ3); experiment: Inhibition of human wild type BRSK2 at 1 uM by qPCR analysis relative to control
[16] = molecular target: T4, Tyrosine-protein kinase ABL1; experiment: Inhibition of human ABL1 mutant at 1 uM by qPCR analysis
[17] = molecular target: T5, Mitogen-activated protein kinase kinase kinase 9 (Homo sapiens, UniProt P80192)
[18] = molecular target: Ribosomal protein S6 kinase alpha-6 (Homo sapiens) (UniProt Q9UK32); experiment: Inhibition of human wild type RSK4 at 1 uM by qPCR analysis
[19] = molecular target: TRAF2 and NCK-interacting protein kinase (Homo sapiens) (UniProt Q9UKE5); experiment: Binding affinity to human wild type TNIK at 1 uM by qPCR analysis
[20] = molecular target: Calcium/calmodulin-dependent protein kinase type II subunit alpha (Homo sapiens) (UniProt Q9UQM7); experiment: Inhibition of human wild type CAMK2A at 1 uM by qPCR analysis relative to control
[21] = molecular target: Calcium/calmodulin-dependent protein kinase type II subunit delta (Homo sapiens) (UniProt Q13557); experiment: Inhibition of human wild type CAMK2D at 1 uM by qPCR analysis relative to control
[22] = molecular target: 5'-AMP-activated protein kinase catalytic subunit alpha-2 (Homo sapiens) (UniProt P54646); experiment: Inhibition of human wild type AMPKalpha2 at 1 uM by qPCR analysis relative to control
[23] = molecular target: T1, Mitogen-activated protein kinase kinase kinase 11; remark: listed apart in the source
[24] = system: Leucine-rich repeat serine/threonine-protein kinase 2 (Homo sapiens), Q5S007 [G2019S]; experiment: Inhibition of human LRRK2 G2019S mutant at 1 uM by qPCR analysis relative to control
[25] = molecular target: Mast/stem cell growth factor receptor Kit (Homo sapiens) (UniProt P10721); experiment: Inhibition of human wild type KIT at 1 uM by qPCR analysis relative to control
[26] = molecular target: Calcium/calmodulin-dependent protein kinase type 1D (Homo sapiens) (UniProt Q8IU85); experiment: Inhibition of human wild type CAMK1D at 1 uM by qPCR analysis relative to control
[27] = molecular target: T5, Mitogen-activated protein kinase kinase kinase 9; experiment: Inhibition of human wild type MLK1 at 1 uM by qPCR analysis relative to control
[28] = molecular target: T2, Leucine-rich repeat serine/threonine-protein kinase 2; experiment: Inhibition of human wild type LRRK2 at 1 uM by qPCR analysis relative to control
[29] = molecular target: Ribosomal protein S6 kinase alpha-1 (Homo sapiens) (UniProt Q15418); experiment: Inhibition of human wild type RSK1 at 1 uM by qPCR analysis
[30] = molecular target: Mitogen-activated protein kinase kinase kinase 10 (Homo sapiens, UniProt Q02779)
[31] = molecular target: Aurora kinase A (Homo sapiens) (UniProt O14965); experiment: Inhibition of human wild type Aurora kinase A at 1 uM by qPCR analysis relative to control

T1 sequence (Q16584 whole entry): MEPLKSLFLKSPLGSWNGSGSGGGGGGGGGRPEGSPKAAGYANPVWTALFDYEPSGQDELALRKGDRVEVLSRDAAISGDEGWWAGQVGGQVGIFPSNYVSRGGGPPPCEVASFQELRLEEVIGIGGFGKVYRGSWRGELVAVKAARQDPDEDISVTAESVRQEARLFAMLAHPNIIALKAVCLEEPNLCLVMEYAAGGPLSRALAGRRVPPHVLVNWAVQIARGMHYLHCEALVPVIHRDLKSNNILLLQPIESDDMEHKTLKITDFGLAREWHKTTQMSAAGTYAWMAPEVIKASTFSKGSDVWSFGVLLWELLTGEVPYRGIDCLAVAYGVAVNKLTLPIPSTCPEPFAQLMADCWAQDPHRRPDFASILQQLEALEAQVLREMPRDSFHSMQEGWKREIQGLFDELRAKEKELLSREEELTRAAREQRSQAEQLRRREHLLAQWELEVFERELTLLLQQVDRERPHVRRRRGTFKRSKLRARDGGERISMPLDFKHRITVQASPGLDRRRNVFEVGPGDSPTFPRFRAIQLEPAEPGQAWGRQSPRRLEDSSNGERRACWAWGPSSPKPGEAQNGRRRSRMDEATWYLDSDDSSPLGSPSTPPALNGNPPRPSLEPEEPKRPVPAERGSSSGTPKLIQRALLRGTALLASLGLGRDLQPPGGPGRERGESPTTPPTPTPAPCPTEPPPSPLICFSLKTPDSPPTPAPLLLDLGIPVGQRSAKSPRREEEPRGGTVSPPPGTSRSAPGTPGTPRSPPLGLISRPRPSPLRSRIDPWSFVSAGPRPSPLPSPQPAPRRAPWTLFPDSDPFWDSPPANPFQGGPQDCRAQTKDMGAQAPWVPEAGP

SMILES: COc1cc(-c2cnc3[nH]cc(-c4cnc(N)nc4)c3c2)cc(OC)c1OC
- IC50 [1]: 9 nM
- IC50 (Cytochrome P450 3A4): > 30000 nM
- IC50 (Cytochrome P450 2D6): > 30000 nM
- IC50 (Cytochrome P450 2C9): > 30000 nM
- IC50 [2]: 990 nM

- inhibition [3]: 88%
- IC50 [4]: 2970 nM
SMILES: COc1cc(-c2cnc3[nH]c(=O)n(-c4ccc5[nH]ccc5c4)c3n2)cc(OC)c1OC

- IC50 [5]: 9.5 nM
- IC50 (Insulin receptor): 1290 nM
- IC50 [6]: 288 nM
- IC50 [1]: 21 nM
- IC50 [7]: 720 nM
- IC50 [8]: 285 nM
- IC50 [9]: 730 nM
- IC50 [10]: 330 nM
SMILES: CN1CCN(Cc2ccc(-c3cnc4[nH]cc(-c5cnc6[nH]ccc6c5)c4c3)cc2)CC1

SMILES: COc1cc(-c2cnc3[nH]cc(-c4ccc(N)nc4)c3c2)cc(OC)c1OC
- inhibition [3]: 99%
- IC50 [4]: 5 nM
- IC50 [1]: 7 nM
- IC50 (Cytochrome P450 3A4): > 30000 nM
- IC50 (Cytochrome P450 2D6): > 30000 nM
- IC50 (Cytochrome P450 2C9): > 30000 nM
- IC50 [2]: 120 nM

- inhibition [3]: 98%
- IC50 [4]: 46 nM
- IC50 [1]: 19 nM
- IC50 (Cytochrome P450 3A4): 4200 nM
- IC50 (Cytochrome P450 2D6): 3700 nM
- IC50 (Cytochrome P450 2C9): 13700 nM
- IC50 [2]: 430 nM
SMILES: Nc1ccc(-c2cnc3[nH]cc(-c4ccc5[nH]ccc5c4)c3c2)cn1

SMILES: Nc1ncc(-c2cnc3[nH]cc(-c4ccc5[nH]ccc5c4)c3c2)cn1
- inhibition [3]: 97%
- IC50 [1]: 78 nM
- IC50 (Cytochrome P450 3A4): 21800 nM
- IC50 (Cytochrome P450 2D6): 13200 nM
- IC50 (Cytochrome P450 2C9): > 30000 nM
- IC50 [2]: 510 nM

SMILES: CCSCc1ccc2c(c1)c1c3c(c4c5cc(CSCC)ccc5n5c4c1n2[C@H]1C[C@](O)(C(=O)OC)[C@]5(C)O1)CNC3=O [CEP-1347]
- inhibition [11]: Active
- inhibition [12]: > 99%
- inhibition [13]: inactive
- inhibition [14]: > 99%
- inhibition [15]: 94%
- inhibition [16]: inactive
- IC50 [17]: < 1 nM
- inhibition [18]: Active
- inhibition [19]: Active
- inhibition [20]: 84%
- inhibition [21]: 87%
- inhibition [22]: 98%
- IC50 [23]: 6 nM
- inhibition [24]: 98%
- inhibition [25]: > 99%
- inhibition [26]: > 99%
- inhibition [27]: > 99%
- inhibition [28]: 100%
- inhibition [29]: Active
- IC50 [30]: 2 nM
- inhibition [31]: > 99%

SMILES: COc1cc(-c2cnc3[nH]cc(-c4ccc5[nH]ccc5c4)c3c2)cc(OC)c1OC
- inhibition [3]: 98%
- IC50 [4]: 35 nM
- IC50 [1]: 3 nM
- IC50 (Cytochrome P450 3A4): > 30000 nM
- IC50 (Cytochrome P450 2D6): > 30000 nM
- IC50 (Cytochrome P450 2C9): > 30000 nM
- IC50 [2]: 2700 nM
